# Like-named read-outs stand apart in the source and are kept apart here.
# What was measured:
# Gardnerella vaginalis = assay: microbe, parasite or virus in culture; assay type: cell-based; details: Gardnerella vaginalis
# Protocol: (§1) The minimum inhibitory concentration (MIC), which is a standard measure of the activity of antimicrobials, was determined according to the Clinical and Laboratory Standards Institute protocol (2018) Methods for Antimicrobial Susceptibility Testing of Anaerobic Bacteria (Carpenter et al., 2018). […] Controls for growth in the absence of antimicrobials were also included. OD600 was recorded by a microplate reader (Tecan, Grodig, Austria) after incubation at 37° C. for 48 h or, for some fast-growing strains, after incubation for 24 h. Absence of growth was defined as OD600≤0.14. […] MIC readout and MBC99.5 spotting were performed after 72 h incubation for H2B10B11.
# (§2) However, topical intravaginal antibiotic administration is recommended for BV therapy, which allows to reach concentrations of active ingredients in the mg/mL range. […] Abbreviations: n.d., not determined; SJHB, St. Jan Hospital Bruges.
# (§3) MIC90 is defined as the MIC value for 90% of the tested strains. For PM-477 (H2B10), the resistance breakpoint is not defined, therefore a “% resistant” is not defined (n.d.).
# Gardnerella swidsinskii = assay: microbe, parasite or virus in culture; assay type: cell-based; details: Gardnerella swidsinskii
# Protocol: as §1, §2, §3
# All Gardnerella = assay: MIC assessment in suspension, panel of 22 strains; assay type: cell-based, Gardnerella spp.
# Protocol: as §1, §2, §3
# Gardnerella piotii = assay: MIC / MBC99.5 assessment in suspension; assay type: cell-based; details: Gardnerella piotii; for MIC: read-out: MIC
# Protocol: as §1, §2, §3
# Gardnerella leopoldii = assay: MIC / MBC99.5 assessment in suspension; assay type: cell-based; details: Gardnerella leopoldii; for MIC: read-out: MIC; for MBC: read-out: MBC99.5
# Protocol: as §1, §2, §3
# [1] = test system: Gardnerella type strains and patient isolates; assay: MIC and MBC99.5 on about 100 type strains and patient isolates of various origins; assay type: cell-based, Gardnerella spp.
# Protocol: as §1
# MIC and MBC99.5 of H2B10B11 on a panel of about 100 Gardnerella type strains and patient isolates from various geographic origins were determined following the CLSI protocol. […] For a subset of fast-growing strains thereof and for some additional strains, MIC determination was performed after 48 h of incubation to bridge the results to earlier assessed MIC values (FIG. 6). In total, MIC was determined for 104 different strains (the MIC of 15 strains was determined both, after 48 h and 72 h). […] The number of strains in each group is stated on the right site of the graph.
# [2] = test system: Gardnerella strains from vaginal swabs of BV patients; assay: MIC and MBC99.5 on 18 in-house BV patient isolates; assay type: cell-based, Gardnerella spp.
# Protocol: as §1
# [3] = ATCC14018, 24 h, read-out: MBC99.5, G. vaginalis (Gv9) ATCC 14018(T), reduces CFU by 99.5% within 24 h
# [4] = ATCC14018, G. vaginalis (Gv9) ATCC 14018(T), suspension
# [5] = G. vaginalis (BV50) UGent BV50.1, suspension
# [6] = G. vaginalis (FB049) UGent FB049-01, suspension
# [7] = read-out: MBC99.5, G. vaginalis (BV111) UGent BV111.5
# [8] = read-out: MBC99.5, G. vaginalis (FB049) UGent FB049-01
# [9] = G. swidsinskii (BV7) UGent BV7.1, suspension
# [10] = G. swidsinskii (Gs23) GS 10234, suspension
# [11] = G. swidsinskii (Gs24) GS 9838-1(T), suspension
# [12] = read-out: MBC99.5, G. swidsinskii (BV7) UGent BV7.1
# [13] = read-out: MBC99.5, G. swidsinskii (Gs23) GS 10234
# [14] = read-out: MBC99.5, G. swidsinskii (Gs24) GS 9838-1(T)
# [15] = G. piotii (FB041) UGent FB041, suspension
# [16] = G. piotii (Gp17) UGent 18.01(T)
# [17] = G. piotii (Gp17) UGent 18.01(T), suspension
# [18] = G. piotii (Gp22) UGent 21.28, suspension
# [19] = G. piotii (P80275) UGent P80275
# [20] = G. piotii (P80275) UGent P80275, suspension
# [21] = G. leopoldii (BV13) UGent BV13.2, suspension
# [22] = G. leopoldii (BV13) UGent BV13.2
# [23] = G. leopoldii (Gl11) UGent 09.48, suspension
# [24] = G. leopoldii (Gl11) UGent 09.48
# [25] = MIC after 72 h, unpaired t-test of log2-transformed data
molecule,measurement,setting,value
"CCC[C@@H]1C[C@@H](C(=O)N[C@@H]([C@H]2O[C@H](SC)[C@H](O)[C@@H](O)[C@H]2O)[C@H](C)Cl)N(C)C1 [CLI, clindamycin]",MIC90,Gardnerella vaginalis,0.5 µg/mL
same,MBC,Gardnerella vaginalis; [3],0.5 µg/mL
same,MIC,Gardnerella vaginalis; [4],0.25 µg/mL
same,MIC,Gardnerella vaginalis; [5],0.25 µg/mL
same,MIC,Gardnerella vaginalis; [6],0.5 µg/mL
same,MIC Range,Gardnerella vaginalis; N=8 strains,<0.06 to 0.5 µg/mL
same,MBC,"Gardnerella vaginalis; read-out: MBC99.5, G. vaginalis (BV50) UGent BV50.1",0.5 µg/mL
same,MBC,Gardnerella vaginalis; [7],2 µg/mL
same,MBC,Gardnerella vaginalis; [8],1 µg/mL
same,MIC,Gardnerella swidsinskii,0.125 µg/mL
same,MIC90,Gardnerella swidsinskii,0.5 µg/mL
same,MIC,Gardnerella swidsinskii; [9],0.5 µg/mL
same,MIC,Gardnerella swidsinskii; [10],0.25 µg/mL
same,MIC,Gardnerella swidsinskii; [11],< 0.06 µg/mL
same,MIC Range,Gardnerella swidsinskii; N=4 strains,<0.06 to 0.5 µg/mL
same,MBC,Gardnerella swidsinskii; [12],1 µg/mL
same,MBC,"Gardnerella swidsinskii; read-out: MBC99.5, G. swidsinskii (BV139) UGent BV139.3",0.25 µg/mL
same,MBC,Gardnerella swidsinskii; [13],0.25 µg/mL
same,MBC,Gardnerella swidsinskii; [14],0.5 µg/mL
same,N resistant,"All Gardnerella; N=22, resistance ≥32 μg/mL MDZ, ≥8 μg/mL CLI",0
same,MIC Range,All Gardnerella; N=22 strains,<0.06-2^ μg/mL
same,MIC90,"All Gardnerella; N=22 strains, read-out: MIC90",0.5 µg/mL
same,MBC,Gardnerella piotii; G. piotii (BV049) UGent BV049.1,0.125 µg/mL
same,MIC,"Gardnerella piotii; G. piotii (BV140) UGent BV140.2, suspension",2 µg/mL
same,MBC,Gardnerella piotii; G. piotii (BV154) UGent BV154.1,0.5 µg/mL
same,MIC,"Gardnerella piotii; G. piotii (BV154) UGent BV154.1, suspension",0.5 µg/mL
same,MBC,Gardnerella piotii; G. piotii (FB041) UGent FB041,2 µg/mL
same,MIC,Gardnerella piotii; [15],1 µg/mL
same,MBC,Gardnerella piotii; [16],1 µg/mL
same,MIC,Gardnerella piotii; [17],0.5 µg/mL
same,MBC,Gardnerella piotii; G. piotii (Gp22) UGent 21.28,0.5 µg/mL
same,MIC,Gardnerella piotii; [18],0.25 µg/mL
same,MBC,Gardnerella piotii; [19],1 µg/mL
same,MIC,Gardnerella piotii; [20],0.5 µg/mL
same,N resistant,"Gardnerella piotii; N=7, resistance ≥32 μg/mL MDZ, ≥8 μg/mL CLI",0
same,MIC Range,Gardnerella piotii; N=7 strains,0.125-2^ μg/mL
same,MIC90,"Gardnerella piotii; N=7 strains, read-out: MIC90",2 µg/mL
same,MIC,"Gardnerella piotii; G. piotii (BV049) UGent BV049.1, suspension",0.125 µg/mL
same,MBC,Gardnerella piotii; G. piotii (BV140) UGent BV140.2,64 µg/mL
same,MIC,Gardnerella leopoldii; [21],0.5 µg/mL
same,MBC,Gardnerella leopoldii; [22],1 µg/mL
same,MIC,"Gardnerella leopoldii; G. leopoldii (BV217) UGent BV217.1, suspension",0.5 µg/mL
same,MBC,Gardnerella leopoldii; G. leopoldii (BV217) UGent BV217.1,1 µg/mL
same,MIC,Gardnerella leopoldii; [23],0.5 µg/mL
same,MBC,Gardnerella leopoldii; [24],1 µg/mL
same,N resistant,"Gardnerella leopoldii; N=3, resistance ≥32 μg/mL MDZ, ≥8 μg/mL CLI",0
same,MIC Range,Gardnerella leopoldii; N=3 strains,0.5 µg/mL
same,MIC90,"Gardnerella leopoldii; N=3 strains, read-out: MIC90",0.5 µg/mL
"CCS(=O)(=O)CCn1c([N+](=O)[O-])cnc1C [TDZ, tinidazole]",MBC,Gardnerella vaginalis; [3],> 128 µg/mL
same,MIC,Gardnerella vaginalis; [4],128 µg/mL
same,MIC,Gardnerella vaginalis; [5],64 µg/mL
same,MIC,Gardnerella vaginalis; [6],8 µg/mL
same,MIC,"Gardnerella vaginalis; G. vaginalis (FB061) UGent FB061-03, suspension, read-out: MIC",4 µg/mL
same,MBC,"Gardnerella vaginalis; G. vaginalis (FB061) UGent FB061-03, read-out: MBC99.5",32 µg/mL
same,MIC,"Gardnerella vaginalis; G. vaginalis (Gv1) UGent 09.07, suspension, read-out: MIC",> 128 µg/mL
same,MBC,"Gardnerella vaginalis; G. vaginalis (Gv1) UGent 09.07, read-out: MBC99.5",> 128 µg/mL
same,MIC,"Gardnerella vaginalis; G. vaginalis (Gv5) UGent 09.01, suspension, read-out: MIC",4 µg/mL
same,MBC,"Gardnerella vaginalis; G. vaginalis (Gv5) UGent 09.01, read-out: MBC99.5",8 µg/mL
same,MIC,"Gardnerella vaginalis; G. vaginalis (Gv8) UGent 25.49, suspension, read-out: MIC",4 µg/mL
same,MBC,"Gardnerella vaginalis; G. vaginalis (Gv8) UGent 25.49, read-out: MBC99.5",32 µg/mL
same,MBC,Gardnerella vaginalis; [7],128 µg/mL
same,MBC,Gardnerella vaginalis; [8],64 µg/mL
same,MIC,Gardnerella swidsinskii; [9],128 µg/mL
same,MIC,Gardnerella swidsinskii; [10],> 128 µg/mL
same,MIC,Gardnerella swidsinskii; [11],> 128 µg/mL
same,MBC,Gardnerella swidsinskii; [12],> 128 µg/mL
same,MBC,Gardnerella swidsinskii; [13],> 128 µg/mL
same,MBC,Gardnerella swidsinskii; [14],> 128 µg/mL
same,MBC,Gardnerella piotii; G. piotii (FB041) UGent FB041,128 µg/mL
same,MIC,Gardnerella piotii; [15],64 µg/mL
same,MBC,Gardnerella piotii; [16],> 128 µg/mL
same,MIC,Gardnerella piotii; [17],64 µg/mL
same,MBC,Gardnerella piotii; G. piotii (Gp22) UGent 21.28,> 128 µg/mL
same,MIC,Gardnerella piotii; [18],> 128 µg/mL
same,MBC,Gardnerella piotii; [19],128 µg/mL
same,MIC,Gardnerella piotii; [20],32 µg/mL
same,MIC,Gardnerella leopoldii; [21],> 128 µg/mL
same,MBC,Gardnerella leopoldii; [22],128 µg/mL
same,MIC,Gardnerella leopoldii; [23],128 µg/mL
same,MBC,Gardnerella leopoldii; [24],> 128 µg/mL
"H2B10B11: recombinant endolysin, SEQ ID NO: 37; differs from H2B10 in one amino acid exchange in one of the binding domains (protein, H2B10B11) MSKRGIDVSEWQGDIDFNAVKASGVEFVIIRAGYGIGCKDKWFEQNYRKAKTCGLDVGAYWYSYANSGFEAAEEAQSCVNMLSGKSFEYPVYFDLEEKSQLNRGRAFCDSLITGFCNKLESCGYYAGFYTSLSTANNLVSAHVRNRYALWIAQWNTHCSYQGSYGLWQYSSSGSVPGVAGRVDMDYAYVDYPSIIKNVGLNGYKNGGSYTAPQISSIDEVAREVINGDWGNGNERKQRLTSAGYDYASVQNKVNELLGVKAYRKSVDELAREVIRGTWGNGSTRKQRLTQAGYDYDAVQKRVNELL",Susceptibility of BV patient isolates of various origins (FIG. 6),[1],susceptible
same,"MIC and MBC99.5 values, readout after 48 h compared to 72 h",[1]; 15 strains determined both after 48 h and 72 h,one concentration lower
same,difference between the MICs of G. vaginalis and G. leopoldii/swidsinskii,[1]; [25],no significant difference
same,difference in susceptibility between isolates from African and European BV patients,[1]; [25],no significant difference
same,median MBC99.5,[2]; 18 in-house BV patient isolates,8 µg/mL
same,median MIC,"[2]; 18 in-house BV patient isolates, H2B10B11 read after 72 h",2 µg/mL
same,MIC90,[2]; panel of 18 BV patient isolates,4.4 µg/mL
same,Lytic effect on MDZ-resistant Gardnerella isolates (FIG. 5),[2]; panel of n=18 BV patient isolates,maintained
same,inhibiting concentration (MIC),[2]; the 10 MDZ-resistant isolates of the panel of 18,4 to 8 µg/mL
